Measurements published in patent US9358250B2, “Methods of using SCD1 antagonists” (Genentech, Inc., priority 2011, dated 2016).
Read-outs that look alike come from different tables or passages of the source.

Key:
SCD1 [1] = target: T1, SCD1 (Homo sapiens, UniProt O00767); details: cited from earlier work
T1 sequence (O00767 1-359): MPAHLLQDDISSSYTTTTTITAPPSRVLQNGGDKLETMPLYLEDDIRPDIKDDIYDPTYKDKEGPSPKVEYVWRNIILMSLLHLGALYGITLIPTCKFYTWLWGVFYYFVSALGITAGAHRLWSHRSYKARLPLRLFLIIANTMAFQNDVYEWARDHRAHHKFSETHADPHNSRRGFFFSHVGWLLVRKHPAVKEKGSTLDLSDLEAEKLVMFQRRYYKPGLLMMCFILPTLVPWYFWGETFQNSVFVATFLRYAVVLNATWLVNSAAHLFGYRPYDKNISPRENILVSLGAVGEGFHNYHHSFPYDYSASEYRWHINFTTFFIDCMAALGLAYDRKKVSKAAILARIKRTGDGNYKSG

SCD1 [2] = target: T1, SCD1; details: cited from earlier work; for IC50: human SCD1
rat SCD1 = target: T2, rat SCD1 (Rattus norvegicus, UniProt P07308); details: cited from earlier work
T2 sequence (P07308 1-358): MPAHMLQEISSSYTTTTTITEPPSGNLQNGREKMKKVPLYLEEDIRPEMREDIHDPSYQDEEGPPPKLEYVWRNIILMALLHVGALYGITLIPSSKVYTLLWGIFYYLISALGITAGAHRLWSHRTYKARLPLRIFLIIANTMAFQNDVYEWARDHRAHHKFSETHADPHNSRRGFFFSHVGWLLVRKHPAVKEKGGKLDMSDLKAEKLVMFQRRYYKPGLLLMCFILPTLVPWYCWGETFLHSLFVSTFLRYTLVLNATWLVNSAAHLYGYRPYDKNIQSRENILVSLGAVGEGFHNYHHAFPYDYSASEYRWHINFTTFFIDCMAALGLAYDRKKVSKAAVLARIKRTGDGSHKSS

[3] = 30 min incubation; cited from earlier work
[4] = 30 min incubation; cited from earlier work; remark: listed apart in the source
Δ5 desaturase = Δ5 desaturase (Homo sapiens, UniProt O60427); details: cited from earlier work
Chain of Δ5 desaturase (O60427 whole entry, stated change not applied): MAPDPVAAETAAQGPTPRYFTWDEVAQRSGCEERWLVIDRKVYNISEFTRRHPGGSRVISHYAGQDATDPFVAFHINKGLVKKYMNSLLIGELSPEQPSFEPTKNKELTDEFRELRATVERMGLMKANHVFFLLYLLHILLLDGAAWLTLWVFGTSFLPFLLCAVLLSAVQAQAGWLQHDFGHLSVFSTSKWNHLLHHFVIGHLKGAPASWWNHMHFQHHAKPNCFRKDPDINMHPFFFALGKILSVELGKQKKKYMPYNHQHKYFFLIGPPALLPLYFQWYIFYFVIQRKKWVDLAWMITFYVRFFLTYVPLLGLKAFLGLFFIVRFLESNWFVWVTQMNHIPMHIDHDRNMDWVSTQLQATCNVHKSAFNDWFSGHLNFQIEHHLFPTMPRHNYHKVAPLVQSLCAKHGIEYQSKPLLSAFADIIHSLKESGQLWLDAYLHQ

Δ6 desaturase = target: T3, Δ6 desaturase (Homo sapiens, UniProt O95864); details: cited from earlier work
T3 sequence (O95864 1-444): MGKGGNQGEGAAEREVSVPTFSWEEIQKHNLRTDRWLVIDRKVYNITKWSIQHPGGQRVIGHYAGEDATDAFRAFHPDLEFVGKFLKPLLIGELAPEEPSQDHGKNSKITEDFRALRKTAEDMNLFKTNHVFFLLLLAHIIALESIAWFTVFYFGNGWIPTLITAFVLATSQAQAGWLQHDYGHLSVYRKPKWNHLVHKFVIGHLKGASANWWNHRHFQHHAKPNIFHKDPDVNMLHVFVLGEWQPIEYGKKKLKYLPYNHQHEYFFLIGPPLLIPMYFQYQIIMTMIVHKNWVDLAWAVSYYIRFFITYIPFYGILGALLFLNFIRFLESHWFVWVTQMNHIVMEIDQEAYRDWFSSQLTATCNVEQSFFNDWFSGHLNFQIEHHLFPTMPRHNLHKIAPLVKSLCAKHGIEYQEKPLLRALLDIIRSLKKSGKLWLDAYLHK

[5] = system: phosphorylation of AKT, S6, and MAPK; test: Western blot, FGF1-stimulated RT112 cells; format: cell-based, human; details: rapamycin 50 nM, Ly294002 20 μM, PD325901 100 nM
Description: (§1) FIG. 8. FGFR3 signalling promotes the accumulation of matured SREBP1 and lipogenesis via PI3K-mTORC1 pathway. (A) Pharmacological inhibition of FGFR3 signalling. RT112 cells were serum starved for 20 hr, then treated with rapamycin (50 nM), Ly294002 (Ly294, 20 μM) and PD325901(PD901, 100 nM) for 2 hr, followed by stimulation with 30 ng/ml FGF1 plus 10 μg/mL of heparin for 10 min. Cell lysates were subjected to immunoblot analyses with indicated antibodies. Note the increased phosphorylation of MEK upon PD901 treatment, presumably due to a relief of feedback inhibition. (B) PI3K-mTORC1 and MEK inhibitors block FGF1 induction of SREBP1 and SCD1 in RT112 cells. RT112 cells were serum starved for 20 hr, treated with kinase inhibitors for 4 hr, followed by 24 hr incubation in medium supplemented with 30 ng/ml FGF1. Cell lysates were immunoblotted to detect SREBP1 maturation, SCD1 and FASN expression. (C) PI3K-mTORC1 and MEK inhibitors block FGF1-stimulated lipid synthesis. RT112 cells were treated the same as described in (B). [^14C]acetate was added for the final 4 hr incubation. The lipid fraction was extracted and [^14C]acetate incorporated into lipids was measured by scintillation counting. Data were normalized to sample protein content, and presented as mean+/−SD. […]

[6] = system: SREBP1 maturation, SCD1 and FASN expression; test: Western blot, FGF1-treated RT112 cells; format: cell-based, human
Description: FIG. 8. FGFR3 signalling promotes the accumulation of matured SREBP1 and lipogenesis via PI3K-mTORC1 pathway. (A) Pharmacological inhibition of FGFR3 signalling. RT112 cells were serum starved for 20 hr, then treated with rapamycin (50 nM), Ly294002 (Ly294, 20 μM) and PD325901(PD901, 100 nM) for 2 hr, followed by stimulation with 30 ng/ml FGF1 plus 10 μg/mL of heparin for 10 min. Cell lysates were subjected to immunoblot analyses with indicated antibodies. Note the increased phosphorylation of MEK upon PD901 treatment, presumably due to a relief of feedback inhibition. (B) PI3K-mTORC1 and MEK inhibitors block FGF1 induction of SREBP1 and SCD1 in RT112 cells. RT112 cells were serum starved for 20 hr, treated with kinase inhibitors for 4 hr, followed by 24 hr incubation in medium supplemented with 30 ng/ml FGF1. Cell lysates were immunoblotted to detect SREBP1 maturation, SCD1 and FASN expression. (C) PI3K-mTORC1 and MEK inhibitors block FGF1-stimulated lipid synthesis. RT112 cells were treated the same as described in (B). [^14C]acetate was added for the final 4 hr incubation. The lipid fraction was extracted and [^14C]acetate incorporated into lipids was measured by scintillation counting. Data were normalized to sample protein content, and presented as mean+/−SD.
(§2) It's worth noting that in Ca129 bladder cancer cells, rapamycin and Ly294002 blocked the accumulation of active SREBP1 and the expression of SCD1, consistent with the results observed in RT112 cells (FIG. 9). […] Thus, in bladder cancer cells, FGFR3 mainly signals through PI3K-mTORC1 axis to promote SREBP1 cleavage and activation, resulting in elevated de novo lipogenesis and fatty acid desaturation. The contribution of MEK-MAPK pathway may be cell line- and/or context-dependent.

[7] = system: total fatty acid synthesis; test: FGF1-stimulated lipid synthesis, [^14C]acetate, RT112 cells; format: cell-based, human
Description: as §1, with “(C) PI3K-mTORC1 and MEK inhibitors block FGF1-stimulated lipid synthesis. RT112 cells were treated the same as described in (B). [^14C]acetate was added for the final 4 hr incubation.” left out, “counting.” for “counting. Data were normalized to sample protein content, and presented as mean+/−SD.”
Lipogenic activity was determined by monitoring the incorporation of [1,2-^14C] acetate (Perkin Elmer, Waltham, Mass.) into fatty acids as reported (39). […] The fatty acids fractions were collected, dried under a steam of nitrogen, and analyzed by scintillation counting. The [^14C] radioactivity was normalized to sample protein content. […]

[8] = system: matured SREBP1 and SCD1 expression; test: Western blot, FGF1-treated Ca129 cells; format: cell-based, human
Description: FIG. 9. FGFR3 signalling promotes the accumulation of matured SREBP1 and SCD1 expression via PI3K-mTORC1 pathway but not MEK-MAPK pathway in Ca129 cells. Ca129 cells were serum starved for 20 hr, treated for 4 hr with vehicle (DMSO), 50 nM rapamycin (Rapa), Ly294002 (Ly294, 20 μM) and PD325901(PD901, 100 nM). Then cells were cultured in medium supplemented with 30 ng/ml FGF1 for 24 hr. Cell lysates were analyzed by Western blot.
as §2

HCT-15 = test: Cell viability, CellTiter-Glo; format: cell-based, human; details: for cell proliferation, oleate / palmitate supplement: HCT15 cells; for IC50: Homo sapiens, HCT-15, 72 h
Description: (§3) For SCD1 small molecule inhibitor experiment, cells were treated with indicated concentration of A37062 (Abbott compound 4c) or G02447171.1 (Daichii compound 24) in DMSO or DMSO alone for 48-72 hr. Cell viability was assessed with CellTiter-Glo at 72 hr post treatment (Promega). Activation of caspase 3 and caspase 7 was measured with the Caspase-Glo 3/7 assay kit at 48 hr after treatment (Promega). Values are presented as mean+/−SD of quadruplets. Data are representative of at least three independent experiments.
(§4) To investigate the effect of SCD1 small molecule antagonists on cancer cell lines were treated with serially diluted A37062 for 72 hr, and […] cell viability was measured by CellTiter-Glo (Promega) as described above.
(§5) To investigate the effect of additional SCD1 small molecule antagonists, HT29 and HCT15 were treated with serially diluted small molecule inhibitors RG1-14 and G02447171 (G7171) for 72 hr, and cell viability was measured by CellTiter-Glo (Promega). The specificity and selectivity of the SCD1 small molecule inhibitors was also evaluated.

HT29 = test: Cell viability, CellTiter-Glo; format: cell-based, human; details: for cell proliferation, oleate / palmitate supplement: HT29 cells; for IC50: Homo sapiens, HT-29, 72 h
Description: as §3, §4, §5

| SMILES | IC50 (HCT-15; Experiment 1 HCT15, 72 hr) | IC50 (HCT-15; Experiment 2 HCT15, 72 hr) | IC50 (HT29; Experiment 1 HT29, 72 hr) | IC50 (HT29; Experiment 2 HT29, 72 hr) | other results |
| --- | --- | --- | --- | --- | --- |
| Cc1nc(-n2ccc(OCc3ccc(F)cc3)cc2=O)sc1C(=O)NCc1ccc(Cl)nc1 [Compound 18] | – | – | – | – | IC50 (SCD1 [1]): 50 nM |
| Cc1nc(-n2ccc3c(O)cccc3c2=O)sc1C(=O)NCc1ccccc1 [Compound 19] | – | – | – | – | IC50 (SCD1 [1]): 30 nM |
| O=C(NCc1cccnc1)c1sc(N2CCN(Cc3ccc(F)cc3)C2=O)nc1C(F)(F)F [Compound 21] | – | – | – | – | IC50 (SCD1 [1]): 42 nM |
| O=C(NCc1cccnc1)c1sc(N2CCN(Cc3ccc(F)cc3)C2=O)nc1C(F)(F)F [Compound 23] | – | – | – | – | IC50 (SCD1 [1]): 10 nM |
| Cc1nnc(-c2ccc(N3CCC(Oc4cc(F)ccc4Cl)CC3)nn2)o1 [Compound 49] | – | – | – | – | IC50 (SCD1 [2]): 37 nM |
| COc1ccc(-c2nc3cnc(NCc4ccc(Cl)c(Cl)c4)nc3n(CCNC(C)=O)c2=O)cc1 [Compound 51] | – | – | – | – | IC50 (SCD1 [2]): 280 nM; IC50 (rat SCD1): 250 nM |
| COc1ccc(-c2nc3ccc(NCc4ccc(Cl)c(C(F)(F)F)c4)cc3n(CCNC(C)=O)c2=O)cc1 [Compound 54] | – | – | – | – | stability in HLM [3]: greater than 50%; stability in RLM [4]: greater than 50%; selectivity against Δ5 desaturase (Δ5 desaturase): selective; selectivity against Δ6 desaturase (Δ6 desaturase): selective |
| O=C1O[C@@H](CO)CN1c1ccc(N2CCC(Oc3ccccc3C(F)(F)F)CC2)nc1 [Compound 67] | – | – | – | – | inhibition of human SCD1 (SCD1 [2]; at 10 μM): 99% |
| O=C(NOC[C@H](O)CO)c1ccc(F)c(F)c1Nc1ccc(I)cc1F [PD325901] | – | – | – | – | FGF1-induced activation of intended target (phosphorylation) [5]: blunted FGF1-induced activation of their intended target; FASN expression [6]: reduced only modestly; SCD1 expression [6]: diminished significantly; basal and FGF1-induced level of the cleaved active SREBP1 [6]: substantially reduced; total fatty acid synthesis stimulated by FGF1 [7]: markedly suppressed; accumulation of active SREBP1 [8]: only partially reduced; expression / induction of SCD1 [8]: did not have much effect |
| O=c1cc(N2CCN(Cc3cc(Cl)cc(Cl)c3O)CC2)nc[nH]1 [RG1] | 5.84 nM | 13.4 nM | 95.7 nM | 33.5 nM | cell proliferation, oleate / palmitate supplement (HCT-15): suppress cell proliferation in a fatty acid desaturation-dependent manner; cell proliferation, oleate / palmitate supplement (HT29): suppress cell proliferation in a fatty acid desaturation-dependent manner |
| O=c1cc(N2CCN(Cc3cc(I)ccc3O)CC2)nc[nH]1 [RG2] | 58.1 nM | 122 nM | 683 nM | 398 nM | – |
| O=c1cc(N2CCN(Cc3cc(Cl)cc(Br)c3O)CC2)nc[nH]1 [RG3] | 2.77 nM | 8.22 nM | 42.6 nM | 14.5 nM | cell proliferation, oleate / palmitate supplement (HCT-15): suppress cell proliferation in a fatty acid desaturation-dependent manner; cell proliferation, oleate / palmitate supplement (HT29): suppress cell proliferation in a fatty acid desaturation-dependent manner |
| O=c1cc(N2CCN(Cc3cc(F)cc(F)c3O)CC2)nc[nH]1 [RG4] | 289 nM | 244 nM | 547 nM | 346 nM | – |
| O=c1cc(N2CCN(Cc3cccc(Cl)c3O)CC2)nc[nH]1 [RG5] | 152 nM | 383 nM | 277 nM | 328 nM | – |
| O=c1cc(N2CCN(Cc3cc(Cl)ccc3O)CC2)nc[nH]1 [RG6] | 86.9 nM | 169 nM | 330 nM | 280 nM | – |
| O=c1cc(N2CCN(Cc3cc(Cl)ccc3[N+](=O)[O-])CC2)nc[nH]1 [RG7] | 177 nM | 495 nM | 89.7 nM | 272 nM | – |
| O=c1cc(N2CCN(Cc3cc(Br)cc(Br)c3O)CC2)nc[nH]1 [RG8] | 0.784 nM | 4.14 nM | 18.7 nM | 8.13 nM | cell proliferation, oleate / palmitate supplement (HCT-15): suppress cell proliferation in a fatty acid desaturation-dependent manner; cell proliferation, oleate / palmitate supplement (HT29): suppress cell proliferation in a fatty acid desaturation-dependent manner |
| Cc1cccc(CN2CCN(c3cc(=O)[nH]cn3)CC2)c1O [RG11] | 148 nM | 416 nM | 243 nM | 266 nM | – |
| Cc1cc(Cl)cc(CN2CCN(c3cc(=O)[nH]cn3)CC2)c1O [RG12] | 1 nM | 4.33 nM | 378 nM | 83.5 nM | – |
| Cc1c(Br)cccc1CN1CCN(c2cc(=O)[nH]cn2)CC1 [RG13] | 288 nM | 274 nM | 129 nM | 191 nM | – |
| O=c1cc(N2CCN(Cc3cc(OC(F)(F)F)ccc3O)CC2)nc[nH]1 [RG14] | 24.6 nM | 53 nM | 689 nM | 323 nM | – |
